Experimental data reported in patent publication US7232813B2, “Neutral endopeptidase (NEP) and human soluble endopeptidase (hSEP) inhibitors for prophylaxis and treatment of neuro-degenerative disorders” (Solvay Pharmaceuticals B.V., priority 2004, dated 2007).

Columns and labels:
[1] = test system: traumatic brain injury; CA3 hippocampus neurons; assay: Traumatic brain injury model (delayed neuronal death), i.c.v. administration; assay type: in vivo, Wistar rats; conditions: for Effect of treatment on neuronal loss in the CA3 hippocampus (ANOVA): 10 μg i.c.v.; for Neuroprotective effect with delayed administration: administered i.c.v. up to 8 hrs after trauma; for Effect on hippocampal neuronal loss: injection of 10 μg into the right cerebral ventricle; for Neuroprotective effect in the traumatic brain injury model: result in words; for Neuronal densities CA3 hippocampus: traumatized right side, 10 μg i.c.v. 15 min after trauma, 3 days after injury, mean ± SD
Procedure: (§1) Contusing device. The contusing device consisted of a stainless steel tube, 40 cm in length, perforated at 1 cm intervals to prevent air compression in the tube. Wistar rats, 230–270 g, were anesthetized with chloral hydrate, 400 mg/kg i.p., a craniotomy over the right hemisphere was made, the device guiding a falling weight onto the footplate resting upon the surface of the dura was placed perpendicular to the surface of the skull, and a force of 380 g×cm produced by a 20 g weight was selected to produce brain contusion. A maximum of 2.5 mm depression of the brain surface was allowed to avoid mechanical puncture of the dura. The center of the footplate was stereotaxically positioned 1.5 mm posterior and 2.5 mm lateral to the bregma. The rats underwent perfusion fixation 3 days after brain injury with a solution containing 4% paraformaldehyde in phosphate buffer.
Intracerebroventricular (i.c.v.) injections: Compounds were administered i.c.v. by means of a Hamilton syringe in a volume of 5–15 μl. Injections were performed over 5 min, 15 min−8 hrs after trauma using the following stereotaxic coordinates: AP=−0.5 mm, L=−2 mm and V=−5.5 in relation to bregma (Swanson, L. W. (1992) Brain Maps: Structure of the Rat Brain, Elsevier, Amsterdam).
(§2) Morphometric analysis in hippocampus. The damage in the hippocampal CA3 subfield was determined stereologically at 5 different rostrocaudal levels extending from 10.21 to 11.21 mm (Swanson, L. W. (1992) Brain Maps: Structure of the Rat Brain, Elsevier, Amsterdam) and throughout its mediolateral axis three days after traumatic injury. To quantitatively assess neuronal loss in the hippocampus, stereological disector technique (Cruz-Orive, L. M. & Weibel, E. R. (1990) Am. J. Physiol. 258, L148–L156) was used to estimate numerical density (NV) of pyramidal neurons. An unbiased counting frame (0.05 mm×0.05 mm; disector height 0.01 mm) and a high-aperture objective (×40) were used for sampling. Normal neurons were identified by the presence of the typical nuclei with clear nucleoplasm and distinct nucleolus surrounded by cytoplasm containing Nissl substance. The border between CA2 and CA3 subfields was considered as the point where the looser arrangement of large pyramidal cells goes into densely packed pyramidal cells of the subfield CA3. An arbitrary line connecting the lateral ends of the dentate granule cell layers was considered a junction between subfields CA3 and CA4.
Dose responses of the neuroprotective effect of the compounds with the formulae 6 and 7 when administered i.c.v. 15 min after trauma to adult Wistar rats were measured. Neuronal densities were determined in the CA3 hippocampal subfield as described in the methods. Densities of CA3 neurons±Standard Deviation (=SED) in 6 stereotactic levels in the left non-traumatized side of vehicle treated rats and the traumatized right side of vehicle treated rats and in rats treated with the compounds with the formulae 6 and 7 were measured and the results listed in table 1 below. In all of the following tables the numbers (“n”) indicate the number of rats per group, where applicable.

[2] = test system: traumatic brain injury; CA3 hippocampus neurons; assay: Traumatic brain injury model (delayed neuronal death), i.v. administration; assay type: in vivo, Wistar rats; conditions: for Neuronal densities CA3 hippocampus, i.v. administration: mean ± SD
Procedure: as §1
Intravenous injections: Compounds were administered i.v. using a 1 ml syringe attached to a 26 gauge needle. The needle was inserted into the left femoral vein following a small skin incision. Compounds were administered in a volume of 1 ml/kg body weight over 30 sec.
as §2
(P<0.001; n=8 per group).

Row | SMILES | Effect of treatment on neuronal loss in the CA3 hippocampus (ANOVA) [1] | Neuroprotective effect with delayed administration [1] | Effect on hippocampal neuronal loss [1] | Neuroprotective effect in the traumatic brain injury model [1] | Neuronal densities CA3 hippocampus ([1]; stereotactic level 10.21) [cells × 10^3/mm^3] | Neuronal densities CA3 hippocampus ([1]; stereotactic level 10.41) [cells × 10^3/mm^3] | Neuronal densities CA3 hippocampus ([1]; stereotactic level 10.61) [cells × 10^3/mm^3] | Neuronal densities CA3 hippocampus ([1]; stereotactic level 10.81) [cells × 10^3/mm^3] | Neuronal densities CA3 hippocampus ([1]; stereotactic level 11.01) [cells × 10^3/mm^3] | Neuronal densities CA3 hippocampus ([1]; stereotactic level 11.21) [cells × 10^3/mm^3] | further results
1 | O=C(O)CN1C(=O)[C@@H](NC(=O)C2(C[C@@H](CCc3cccc4ccccc34)C(=O)O)CCCC2)CCc2ccccc21 [Formula 7, (2R)-2-{[1-({[(3S)-1-(carboxymethyl)-2-oxo-2,3,4,5-tetrahydro-1H-1-benzazepin-3-yl]amino)carbonyl)cyclopentyl]methyl}-4-(1-naphthyl)butanoic acid] | significant protective effect | still evident | partially prevented hippocampal neuronal loss | dose-dependent neuroprotective effects | 107.25 ± 15.19 | 100.25 ± 14.71 | 93.50 ± 16.96 | 93.50 ± 12.36 | 101.50 ± 18.81 | 107.75 ± 16.51 | Effect of treatment on neuronal loss in the CA3 hippocampus (ANOVA) ([2]; both tested doses (30 and 300 mg/kg i.v.), P<0.001, n=8 per group): significant protective effect; Neuroprotection of 300 mg/kg compared with 30 mg/kg (ANOVA) ([2]; i.v., 300 mg/kg vs 30 mg/kg): significantly better neuroprotection; Effect on hippocampal neuronal loss ([2]; injection of 30 or 300 mg/kg i.v.): partially prevented hippocampal neuronal loss; Neuronal densities CA3 hippocampus, i.v. administration ([2]; stereotactic level 10.21, 30 mg/kg i.v.): 107.50 ± 6.99 cells × 10^3/mm^3; Neuronal densities CA3 hippocampus, i.v. administration ([2]; stereotactic level 10.21, 300 mg/kg i.v.): 126.50 ± 5.53 cells × 10^3/mm^3; Neuronal densities CA3 hippocampus, i.v. administration ([2]; stereotactic level 10.41, 30 mg/kg i.v.): 102.25 ± 7.89 cells × 10^3/mm^3; Neuronal densities CA3 hippocampus, i.v. administration ([2]; stereotactic level 10.41, 300 mg/kg i.v.): 117.75 ± 4.95 cells × 10^3/mm^3; Neuronal densities CA3 hippocampus, i.v. administration ([2]; stereotactic level 10.61, 30 mg/kg i.v.): 100.75 ± 9.91 cells × 10^3/mm^3; Neuronal densities CA3 hippocampus, i.v. administration ([2]; stereotactic level 10.61, 300 mg/kg i.v.): 110.00 ± 7.01 cells × 10^3/mm^3; Neuronal densities CA3 hippocampus, i.v. administration ([2]; stereotactic level 10.81, 30 mg/kg i.v.): 101.75 ± 9.65 cells × 10^3/mm^3; Neuronal densities CA3 hippocampus, i.v. administration ([2]; stereotactic level 10.81, 300 mg/kg i.v.): 106.75 ± 7.48 cells × 10^3/mm^3; Neuronal densities CA3 hippocampus, i.v. administration ([2]; stereotactic level 11.01, 30 mg/kg i.v.): 111.25 ± 7.55 cells × 10^3/mm^3; Neuronal densities CA3 hippocampus, i.v. administration ([2]; stereotactic level 11.01, 300 mg/kg i.v.): 116.50 ± 9.06 cells × 10^3/mm^3; Neuronal densities CA3 hippocampus, i.v. administration ([2]; stereotactic level 11.21, 30 mg/kg i.v.): 117.75 ± 10.11 cells × 10^3/mm^3; Neuronal densities CA3 hippocampus, i.v. administration ([2]; stereotactic level 11.21, 300 mg/kg i.v.): 125.25 ± 5.01 cells × 10^3/mm^3
2 | O=C(O)CN1C(=O)[C@@H](NC(=O)C2(C[C@@H](CCc3ccccc3)C(=O)O)CCCC2)CCc2ccccc21 [Formula 6, (2R)-2-{[1-({[(3S)-1-(carboxymethyl)-2-oxo-2,3,4,5-tetrahydro-1H-1-benzaepin-3-yl]amino}carbonyl)cyclopentyl]methyl}-4-phenylbutanoic acid] | significant protective effect | still evident | partially prevented hippocampal neuronal loss | dose-dependent neuroprotective effects | 112.5 ± 11.40 | 103.75 ± 11.80 | 101.75 ± 14.80 | 98.50 ± 10.68 | 96.75 ± 13.98 | 101.75 ± 15.17 | –
